ChEMBL document CHEMBL1201861, “Genomics of Drug Sensitity in Cancer screening data, Wellcome Trust Sanger Institute”

Tests used:
[1] = test system: GMS-10; assay: cells; assay type: functional, cell-based; conditions: Homo sapiens;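 also: growth inhibition of GMS-10 cells, read out as cell viability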
Description: SANGER: Inhibition of human GMS-10 cell growth in a cell viability assay.

[2] = test system: NY; assay: cells; assay type: functional, cell-based; conditions: Homo sapiens
Description: SANGER: Inhibition of human NY cell growth in a cell viability assay.

[3] = test system: KYSE-270; assay: cells; assay type: functional, cell-based; conditions: Homo sapiens;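 also: cell growth inhibition measured with a viability assay in the human KYSE-270 line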
Description: SANGER: Inhibition of human KYSE-270 cell growth in a cell viability assay.

[4] = test system: KYSE-140; assay: cells; assay type: functional, cell-based; conditions: Homo sapiens;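 also: cell viability assay measuring growth inhibition in human KYSE-140 cells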
Description: SANGER: Inhibition of human KYSE-140 cell growth in a cell viability assay.

[5] = test system: A-375; assay: cells; assay type: functional, cell-based; conditions: Homo sapiens;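 also: growth inhibition of A375 cells, read out with a cell viability assay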
Description: SANGER: Inhibition of human A375 cell growth in a cell viability assay.

[6] = test system: HCC1599; assay: cells; assay type: functional, cell-based; conditions: Homo sapiens;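 also: growth inhibition of HCC1599 cells, read out in a cell viability assay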
Description: SANGER: Inhibition of human HCC1599 cell growth in a cell viability assay.

[7] = test system: PF-382; assay: cells; assay type: functional, cell-based; conditions: Homo sapiens
Description: SANGER: Inhibition of human PF-382 cell growth in a cell viability assay.

[8] = test system: OPM-2; assay: cells; assay type: functional, cell-based; conditions: Homo sapiens;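 also: growth of OPM-2 cells measured with a viability assay, IC50 for suppression of proliferation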
Description: SANGER: Inhibition of human OPM-2 cell growth in a cell viability assay.

[9] = test system: ECC4; assay: cells; assay type: functional, cell-based; conditions: Homo sapiens;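 also: growth inhibition of ECC4 cells, read out with a cell viability assay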
Description: SANGER: Inhibition of human ECC4 cell growth in a cell viability assay.

[10] = test system: COR-L23; assay: cells; assay type: functional, cell-based; conditions: Homo sapiens;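 also: cell viability assay measuring how strongly compounds suppress growth of COR-L23 cells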
Description: SANGER: Inhibition of human COR-L23 cell growth in a cell viability assay.

[11] = test system: TALL-1; assay: cells; assay type: functional, cell-based; conditions: Homo sapiens;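 also: growth inhibition of cultured human TALL-1 cells, read out by a cell viability assay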
Description: SANGER: Inhibition of human TALL-1 cell growth in a cell viability assay.

[12] = test system: HSC-2; assay: cells; assay type: functional, cell-based; conditions: Homo sapiens;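 also: growth inhibition of human HSC-2 cells, read out by a cell viability assay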
Description: SANGER: Inhibition of human HSC-2 cell growth in a cell viability assay.

[13] = test system: NUGC-3; assay: cells; assay type: functional, cell-based; conditions: Homo sapiens;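 also: growth inhibition of human NUGC-3 cells, read out with a cell viability assay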
Description: SANGER: Inhibition of human NUGC-3 cell growth in a cell viability assay.

[14] = test system: SCLC-21H; assay: cells; assay type: functional, cell-based; conditions: Homo sapiens;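 also: growth inhibition of cultured human SCLC-21H cells, read out with a cell viability assay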
Description: SANGER: Inhibition of human SCLC-21H cell growth in a cell viability assay.

[15] = test system: MEL-JUSO; assay: cells; assay type: functional, cell-based; conditions: Homo sapiens;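 also: growth inhibition of human MEL-JUSO cells, read out with a cell viability assay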
Description: SANGER: Inhibition of human MEL-JUSO cell growth in a cell viability assay.

[16] = test system: SK-MES-1; assay: cells; assay type: functional, cell-based; conditions: Homo sapiens;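 also: growth inhibition of human SK-MES-1 cells, read out with a cell viability assay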
Description: SANGER: Inhibition of human SK-MES-1 cell growth in a cell viability assay.

[17] = test system: KMS-12-PE; assay: cells; assay type: functional, cell-based; conditions: Homo sapiens;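 also: growth inhibition of human KMS-12-PE cells, measured with a cell viability assay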
Description: SANGER: Inhibition of human KMS-12-PE cell growth in a cell viability assay.

[18] = test system: U2OS; assay: cells; assay type: functional, cell-based, U-2-OS; conditions: Homo sapiens;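 also: growth inhibition of human U-2-OS cells, determined with a cell viability assay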
Description: SANGER: Inhibition of human U-2-OS cell growth in a cell viability assay.

[19] = test system: AU565; assay: cells; assay type: functional, cell-based; conditions: Homo sapiens;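 also: cell viability assay measuring growth inhibition of human AU565 cells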
Description: SANGER: Inhibition of human AU565 cell growth in a cell viability assay.

[20] = test system: NCI-H2170; assay: cells; assay type: functional, cell-based; conditions: Homo sapiens;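 also: cell viability assay measuring growth inhibition of human NCI-H2170 cancer cells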
Description: SANGER: Inhibition of human NCI-H2170 cell growth in a cell viability assay.

[21] = test system: HSC-4; assay: cells; assay type: functional, cell-based; conditions: Homo sapiens;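 also: growth inhibition of human HSC-4 cells, read out with a cell viability assay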
Description: SANGER: Inhibition of human HSC-4 cell growth in a cell viability assay.

[22] = test system: HCC1954; assay: cells; assay type: functional, cell-based; conditions: Homo sapiens;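 also: growth inhibition of human HCC1954 cells, read out with a cell viability assay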
Description: SANGER: Inhibition of human HCC1954 cell growth in a cell viability assay.

[23] = test system: MDA-MB-361; assay: cells; assay type: functional, cell-based; conditions: Homo sapiens
[24] = test system: C32; assay: cells; assay type: functional, cell-based; conditions: Homo sapiens;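 also: cell viability assay, with IC50 reflecting inhibition of C32 cell growth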
Description: SANGER: Inhibition of human C32 cell growth in a cell viability assay.

[25] = test system: NCI-H358; assay: cells; assay type: functional, cell-based; conditions: Homo sapiens;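 also: growth inhibition of NCI-H358 human cells, read out with a cell viability assay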
Description: SANGER: Inhibition of human NCI-H358 cell growth in a cell viability assay.

[26] = test system: HLE; assay: cells; assay type: functional, cell-based; conditions: Homo sapiens;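 also: growth inhibition of human HLE cells, read out by a cell viability assay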
Description: SANGER: Inhibition of human HLE cell growth in a cell viability assay.

[27] = test system: KP-N-YN; assay: cells; assay type: functional, cell-based; conditions: Homo sapiens;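 also: growth inhibition of KP-N-YN cells, read out with a cell viability assay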
Description: SANGER: Inhibition of human KP-N-YN cell growth in a cell viability assay.

[28] = test system: BC-3; assay: cells; assay type: functional, cell-based; conditions: Homo sapiens;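 also: cell viability assay measuring growth inhibition of human BC-3 cells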
Description: SANGER: Inhibition of human BC-3 cell growth in a cell viability assay.

[29] = test system: NCCIT; assay: SANGER: Inhibition of human NCCIT cell growth in a cell viability assay.; assay type: functional, cell-based
[30] = test system: U-118-MG; assay: cells; assay type: functional, cell-based; conditions: Homo sapiens
Description: SANGER: Inhibition of human U-118-MG cell growth in a cell viability assay.

[31] = test system: SKG-IIIa; assay: cells; assay type: functional, cell-based; conditions: Homo sapiens;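 also: cell growth inhibition, read out with a cell viability assay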
Description: SANGER: Inhibition of human SKG-IIIa cell growth in a cell viability assay.

[32] = test system: MKN-7; assay: cells; assay type: functional, cell-based; conditions: Homo sapiens;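 also: growth inhibition of MKN-7 cells, read out with a cell viability assay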
Description: SANGER: Inhibition of human MKN7 cell growth in a cell viability assay.

[33] = test system: BL-41; assay: cells; assay type: functional, cell-based; conditions: Homo sapiens;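 also: growth inhibition of human BL-41 cells, read out with a cell viability assay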
Description: SANGER: Inhibition of human BL-41 cell growth in a cell viability assay.

[34] = test system: CESS; assay: SANGER: Inhibition of human CESS cell growth in a cell viability assay.; assay type: functional, cell-based
[35] = test system: SK-MEL3; assay: cells; assay type: functional, cell-based, SK-MEL-3; conditions: Homo sapiens;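 also: growth inhibition of human SK-MEL-3 cells, read out with a cell viability assay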
Description: SANGER: Inhibition of human SK-MEL-3 cell growth in a cell viability assay.

[36] = test system: KOSC-2; assay: cells; assay type: functional, cell-based; conditions: Homo sapiens;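 also: growth inhibition of KOSC-2 cells, read out by a cell viability assay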
Description: SANGER: Inhibition of human KOSC-2 cell growth in a cell viability assay.

[37] = test system: CA46; assay: cells; assay type: functional, cell-based; conditions: Homo sapiens;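 also: growth inhibition of human CA46 cells, read out by a cell viability assay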
Description: SANGER: Inhibition of human CA46 cell growth in a cell viability assay.

[38] = test system: SIG-M5; assay: cells; assay type: functional, cell-based; conditions: Homo sapiens;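 also: cell viability assay read-out, measuring how strongly growth of cultured human SIG-M5 cells is inhibited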
Description: SANGER: Inhibition of human SIG-M5 cell growth in a cell viability assay.

[39] = test system: OVCAR-8; assay: cells; assay type: functional, cell-based; conditions: Homo sapiens;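 also: growth inhibition of human OVCAR-8 cells, read out by a cell viability assay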
Description: SANGER: Inhibition of human OVCAR-8 cell growth in a cell viability assay.

[40] = test system: SR; assay: cells; assay type: functional, cell-based; conditions: Homo sapiens
Description: SANGER: Inhibition of human SR cell growth in a cell viability assay.

[41] = test system: MEL-HO; assay: cells; assay type: functional, cell-based; conditions: Homo sapiens
Description: SANGER: Inhibition of human MEL-HO cell growth in a cell viability assay.

[42] = test system: NCI-H2405; assay: cells; assay type: functional, cell-based; conditions: Homo sapiens;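 also: growth inhibition of the human cell line, read out with a cell viability assay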
Description: SANGER: Inhibition of human NCI-H2405 cell growth in a cell viability assay.

[43] = test system: CAKI-1; assay: cells; assay type: functional, cell-based; conditions: Homo sapiens;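 also: growth inhibition of CAKI-1 cells, measured by a cell viability assay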
Description: SANGER: Inhibition of human CAKI-1 cell growth in a cell viability assay.

[44] = test system: KYSE-180; assay: cells; assay type: functional, cell-based; conditions: Homo sapiens;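 also: growth inhibition of KYSE-180 cells, read out with a cell viability assay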
Description: SANGER: Inhibition of human KYSE-180 cell growth in a cell viability assay.

[45] = test system: LoVo; assay: cells; assay type: functional, cell-based; conditions: Homo sapiens;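 also: growth inhibition of human LoVo cells, read out with a cell viability assay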
Description: SANGER: Inhibition of human LoVo cell growth in a cell viability assay.

[46] = test system: SNU-387; assay: cells; assay type: functional, cell-based; conditions: Homo sapiens
Description: SANGER: Inhibition of human SNU-387 cell growth in a cell viability assay.

[47] = test system: HOP-92; assay: cells; assay type: functional, cell-based; conditions: Homo sapiens;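 also: cell viability readout, with IC50 reflecting inhibition of HOP-92 cell growth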
Description: SANGER: Inhibition of human HOP-92 cell growth in a cell viability assay.

[48] = test system: HT-3; assay: cells; assay type: functional, cell-based; conditions: Homo sapiens;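 also: growth inhibition measured with a cell viability readout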
Description: SANGER: Inhibition of human HT-3 cell growth in a cell viability assay.

[49] = test system: HCC1395; assay: cells; assay type: functional, cell-based; conditions: Homo sapiens;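 also: growth inhibition of HCC1395 cells, read out by a cell viability assay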
Description: SANGER: Inhibition of human HCC1395 cell growth in a cell viability assay.

[50] = test system: NCI-H2171; assay: cells; assay type: functional, cell-based; conditions: Homo sapiens;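 also: growth inhibition of human NCI-H2171 cells, read out by a cell viability assay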
Description: SANGER: Inhibition of human NCI-H2171 cell growth in a cell viability assay.

[51] = test system: HuCCT-1; assay: cells; assay type: functional, cell-based, HuCCT1; conditions: Homo sapiens;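 also: growth inhibition of HuCCT-1 cells, read out by a cell viability assay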
Description: SANGER: Inhibition of human HuCCT1 cell growth in a cell viability assay.

[52] = test system: BHY; assay: cells; assay type: functional, cell-based; conditions: Homo sapiens;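 also: cell growth inhibition read out by a viability assay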
Description: SANGER: Inhibition of human BHY cell growth in a cell viability assay.

[53] = test system: AN3-CA; assay: cells; assay type: functional, cell-based; conditions: Homo sapiens;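 also: growth inhibition of human AN3-CA cells measured by a cell viability assay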
Description: SANGER: Inhibition of human AN3-CA cell growth in a cell viability assay.

[54] = test system: D-392MG; assay: cells; assay type: functional, cell-based; conditions: Homo sapiens
[55] = test system: YKG-1; assay: cells; assay type: functional, cell-based; conditions: Homo sapiens;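 also: cell growth inhibition, read out with a viability assay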
Description: SANGER: Inhibition of human YKG-1 cell growth in a cell viability assay.

[56] = test system: MFE-280; assay: cells; assay type: functional, cell-based; conditions: Homo sapiens;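 also: growth inhibition of MFE-280 cells, determined with a cell viability readout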
Description: SANGER: Inhibition of human MFE-280 cell growth in a cell viability assay.

[57] = test system: NCI-H1417; assay: cells; assay type: functional, cell-based; conditions: Homo sapiens;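 also: human NCI-H1417 cells, growth inhibition determined with a cell viability readout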
Description: SANGER: Inhibition of human NCI-H1417 cell growth in a cell viability assay.

[58] = test system: EVSA-T; assay: cells; assay type: functional, cell-based; conditions: Homo sapiens;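 also: growth inhibition of EVSA-T cells, read out with a cell viability assay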
Description: SANGER: Inhibition of human EVSA-T cell growth in a cell viability assay.

[59] = test system: NCI-H1793; assay: cells; assay type: functional, cell-based; conditions: Homo sapiens;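 also: cell growth inhibition, read out by a cell viability assay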
Description: SANGER: Inhibition of human NCI-H1793 cell growth in a cell viability assay.

[60] = test system: SK-MEL-28; assay: cells; assay type: functional, cell-based; conditions: Homo sapiens
Description: SANGER: Inhibition of human SK-MEL-28 cell growth in a cell viability assay.

[61] = test system: NCI-N87; assay: cells; assay type: functional, cell-based; conditions: Homo sapiens
Description: SANGER: Inhibition of human NCI-N87 cell growth in a cell viability assay.

[62] = test system: HEC-1; assay: cells; assay type: functional, cell-based; conditions: Homo sapiens
Description: SANGER: Inhibition of human HEC-1 cell growth in a cell viability assay.

[63] = test system: CAL-27; assay: cells; assay type: functional, cell-based; conditions: Homo sapiens
Description: SANGER: Inhibition of human CAL-27 cell growth in a cell viability assay.

[64] = test system: GCT; assay: cells; assay type: functional, cell-based; conditions: Homo sapiens
Description: SANGER: Inhibition of human GCT cell growth in a cell viability assay.

[65] = test system: T84; assay: cells; assay type: functional, cell-based; conditions: Homo sapiens
Description: SANGER: Inhibition of human T84 cell growth in a cell viability assay.

Measured: IC50

C/C(O)=C(\C#N)C(=O)Nc1cc(Br)ccc1Br
> 16 µM: [1] | [2] | [3] | [4] | [5] | [6] | [7] | [8] | [9] | [10] | [11] | [12] | [13] | [14] | [15] | [16] | [17] | [18] | [19] | [20] | [21] | [22] | [23] | [24] | [25] | [26] | [27] | [28] | [29] | [30] | [31] | [32] | [33] | [34] | [35] | [36] | [37] | [38] | [39] | [40] | [41] | [42] | [43] | [44] | [45] | [46] | [47] | [48] | [49] | [50] | [51] | [52] | [53] | [54] | [55] | [56] | [57] | [58] | [59] | [60] | [61] | [62] | [63] | [64] | [65]
